Assay results published in PubChem BioAssay (NCI).
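Grown in 96-well plates, cells were treated for 48 hours with each compound at five concentrations. Insufficient inhibition: endpoint recorded as highest concentration tested. The concentration for 50% growth inhibition is given as GI50. Definition used: TGI = concentration required for complete inhibition of growth.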

Columns and labels:
Assay in all cases: growth of human tumour cells (NCI), 48 h
UACC-257 melanoma = test system: UACC-257 melanoma
HCC-2998 colon = test system: HCC-2998 colon
SK-MEL-5 melanoma = test system: SK-MEL-5 melanoma
RPMI-8226 leukemia = test system: RPMI-8226 leukemia
HCT-116 colon = test system: HCT-116 colon
MDA-MB-435 = test system: MDA-MB-435
K-562 leukemia = test system: K-562 leukemia
TK-10 renal = test system: TK-10 renal
IGROV1 ovarian = test system: IGROV1 ovarian
EKVX NSCLC = test system: EKVX NSCLC
CCRF-CEM leukemia = test system: CCRF-CEM leukemia
LOX IMVI melanoma = test system: LOX IMVI melanoma
RXF 393 renal = test system: RXF 393 renal
KM12 colon = test system: KM12 colon
OVCAR-5 ovarian = test system: OVCAR-5 ovarian
HOP-92 NSCLC = test system: HOP-92 NSCLC
HCT-15 colon = test system: HCT-15 colon
MDA-MB-231 breast = test system: MDA-MB-231 breast
A498 renal = test system: A498 renal
SW-620 colon = test system: SW-620 colon
SNB-19 CNS = test system: SNB-19 CNS
HOP-62 NSCLC = test system: HOP-62 NSCLC
SNB-75 CNS = test system: SNB-75 CNS
ACHN renal = test system: ACHN renal
OVCAR-8 ovarian = test system: OVCAR-8 ovarian
SK-OV-3 ovarian = test system: SK-OV-3 ovarian
MALME-3M melanoma = test system: MALME-3M melanoma
SF-295 CNS = test system: SF-295 CNS
OVCAR-3 ovarian = test system: OVCAR-3 ovarian
SF-268 CNS = test system: SF-268 CNS
SK-MEL-28 melanoma = test system: SK-MEL-28 melanoma
HS 578T breast = test system: HS 578T breast
NCI-H23 lung = test system: NCI-H23 lung
UACC-62 melanoma = test system: UACC-62 melanoma
A549 NSCLC = test system: A549 NSCLC
NCI-H460 lung = test system: NCI-H460 lung
MCF7 breast = test system: MCF7 breast
BT-549 breast = test system: BT-549 breast
HL-60(TB) leukemia = test system: HL-60(TB) leukemia
OVCAR-4 ovarian = test system: OVCAR-4 ovarian
NCI-H522 lung = test system: NCI-H522 lung
NCI-H226 lung = test system: NCI-H226 lung
SN12C renal = test system: SN12C renal
U251 CNS = test system: U251 CNS
COLO 205 colon = test system: COLO 205 colon
HT29 colon = test system: HT29 colon
DU-145 prostate = test system: DU-145 prostate
UO-31 renal = test system: UO-31 renal
786-0 renal = test system: 786-0 renal
SK-MEL-2 melanoma = test system: SK-MEL-2 melanoma
NCI/ADR-RES ovarian = test system: NCI/ADR-RES ovarian
SF-539 CNS = test system: SF-539 CNS
SR leukemia = test system: SR leukemia
CAKI-1 renal = test system: CAKI-1 renal

COC(=O)N1CCN(CCNCc2ccc(NC(=O)c3ccc(C)c(C#Cc4cnc5cccnn45)c3)cc2C(F)(F)F)CC1 showed a GI50 (UACC-257 melanoma) of 1530 nM, a TGI (UACC-257 melanoma) of 3270 nM and a GI50 (HCC-2998 colon) of 1480 nM. The TGI (HCC-2998 colon) was 2860 nM, the GI50 (SK-MEL-5 melanoma) was 1580 nM and the TGI (SK-MEL-5 melanoma) was 2970 nM. For the same compound, the GI50 (RPMI-8226 leukemia) was 1370 nM, the TGI (RPMI-8226 leukemia) was 4320 nM and the GI50 (HCT-116 colon) was 630 nM. It also gave a TGI (HCT-116 colon) of 2320 nM, a GI50 (MDA-MB-435) of 1080 nM and a TGI (MDA-MB-435) of 2390 nM. The TGI (K-562 leukemia) was greater than 100000 nM, the GI50 (TK-10 renal) was 2210 nM and the TGI (TK-10 renal) was 5070 nM. For the same compound, the GI50 (IGROV1 ovarian) was 1410 nM, the TGI (IGROV1 ovarian) was 3430 nM and the GI50 (EKVX NSCLC) was 2040 nM. It also gave a TGI (EKVX NSCLC) of 4390 nM, a GI50 (CCRF-CEM leukemia) of 1460 nM and a TGI (CCRF-CEM leukemia) of 8220 nM. For the same compound, the GI50 (LOX IMVI melanoma) was 743 nM, the TGI (LOX IMVI melanoma) was 2050 nM and the GI50 (RXF 393 renal) was 1730 nM. The TGI (RXF 393 renal) was 3210 nM, the GI50 (KM12 colon) was 434 nM and the TGI (KM12 colon) was 1730 nM. It also gave a GI50 (OVCAR-5 ovarian) of 1390 nM, a TGI (OVCAR-5 ovarian) of 3970 nM and a GI50 (HOP-92 NSCLC) of 867 nM. It also gave a TGI (HOP-92 NSCLC) of 2830 nM, a GI50 (HCT-15 colon) of 1100 nM and a TGI (HCT-15 colon) of 3070 nM. The GI50 (MDA-MB-231 breast) was 1260 nM, the TGI (MDA-MB-231 breast) was 3250 nM and the GI50 (A498 renal) was 2800 nM. The TGI (A498 renal) was 7350 nM, the GI50 (SW-620 colon) was 1320 nM and the TGI (SW-620 colon) was 3410 nM. The GI50 (SNB-19 CNS) was 2530 nM, the TGI (SNB-19 CNS) was 5890 nM and the GI50 (HOP-62 NSCLC) was 1590 nM. The TGI (HOP-62 NSCLC) was 3430 nM, the GI50 (SNB-75 CNS) was 372 nM and the TGI (SNB-75 CNS) was 1950 nM. It also gave a GI50 (ACHN renal) of 2320 nM, a TGI (ACHN renal) of 6850 nM and a GI50 (OVCAR-8 ovarian) of 1820 nM. It also gave a TGI (OVCAR-8 ovarian) of 4350 nM, a GI50 (SK-OV-3 ovarian) of 2070 nM and a TGI (SK-OV-3 ovarian) of 3850 nM. The GI50 (MALME-3M melanoma) was 893 nM, the TGI (MALME-3M melanoma) was 2410 nM and the GI50 (SF-295 CNS) was 1540 nM. It also gave a TGI (SF-295 CNS) of 3030 nM, a GI50 (OVCAR-3 ovarian) of 2000 nM and a TGI (OVCAR-3 ovarian) of 4200 nM. It also gave a GI50 (SF-268 CNS) of 2080 nM, a TGI (SF-268 CNS) of 4780 nM and a GI50 (SK-MEL-28 melanoma) of 1480 nM. For the same compound, the TGI (SK-MEL-28 melanoma) was 2890 nM, the GI50 (HS 578T breast) was 1720 nM and the TGI (HS 578T breast) was 5040 nM. The GI50 (NCI-H23 lung) was 1170 nM, the TGI (NCI-H23 lung) was 2880 nM and the GI50 (UACC-62 melanoma) was 1430 nM. For the same compound, the TGI (UACC-62 melanoma) was 3040 nM, the GI50 (A549 NSCLC) was 1690 nM and the TGI (A549 NSCLC) was 4210 nM. The GI50 (NCI-H460 lung) was 1850 nM, the TGI (NCI-H460 lung) was 3760 nM and the GI50 (MCF7 breast) was 1470 nM. It also gave a TGI (MCF7 breast) of 3060 nM, a GI50 (BT-549 breast) of 2400 nM and a TGI (BT-549 breast) of 4950 nM. The GI50 (HL-60(TB) leukemia) was 342 nM, the TGI (HL-60(TB) leukemia) was 3220 nM and the GI50 (OVCAR-4 ovarian) was 1930 nM. For the same compound, the TGI (OVCAR-4 ovarian) was 5860 nM, the GI50 (NCI-H522 lung) was 1510 nM and the TGI (NCI-H522 lung) was 3230 nM. For the same compound, the GI50 (NCI-H226 lung) was 1390 nM, the TGI (NCI-H226 lung) was 5320 nM and the GI50 (SN12C renal) was 1680 nM. The TGI (SN12C renal) was 4080 nM, the GI50 (U251 CNS) was 1530 nM and the TGI (U251 CNS) was 3320 nM. The GI50 (COLO 205 colon) was 1190 nM, the TGI (COLO 205 colon) was 2790 nM and the GI50 (HT29 colon) was 769 nM. It also gave a TGI (HT29 colon) of 2320 nM, a GI50 (DU-145 prostate) of 2220 nM and a TGI (DU-145 prostate) of 4770 nM. For the same compound, the GI50 (UO-31 renal) was 1340 nM, the TGI (UO-31 renal) was 3140 nM and the GI50 (786-0 renal) was 1450 nM. For the same compound, the TGI (786-0 renal) was 3540 nM, the GI50 (SK-MEL-2 melanoma) was 1150 nM and the TGI (SK-MEL-2 melanoma) was 2800 nM. The GI50 (NCI/ADR-RES ovarian) was 2020 nM, the TGI (NCI/ADR-RES ovarian) was 6240 nM and the GI50 (SF-539 CNS) was 1400 nM. The TGI (SF-539 CNS) was 2780 nM, the GI50 (SR leukemia) was 796 nM and the TGI (SR leukemia) was 22100 nM. For the same compound, the GI50 (CAKI-1 renal) was 1890 nM and the TGI (CAKI-1 renal) was 4710 nM.
